Measurements as given in US20230121245A1, “REGENERATIVE NONSTEROIDAL ANTI-INFLAMMATORY COMPOSITIONS, METHODS OF PRODUCTION, AND METHODS OF USE THEREOF” (CROWN SCIENTIFIC, L.L.C., priority 2021, published 2023).

System: TNFα
Assay: LPS induced TNFα response in PBMCs (monocyte/macrophage model)
Assay type: cell-based, human
Conditions: 0.01-100 μM, compared to vehicle control (0.13% DMSO), 100 ng LPS, 24 hours
Method: Fresh leukoreduction system (LRS) cones of healthy donors aged 18-80 years old were purchased from Oklahoma Blood Institute. PBMCs were isolated from LRS cones using EasySep™ Direct Human PBMC Isolation Kit (cat #19654, StemCell Technologies) as per manufacturer's specifications. 1.5 million PBMCs were seeded in 0.5 ml of RPMI (11835030, Gibco) supplemented with 5% HPL (Millcreek), lx Glutamax (35050061, Gibco), 1×NEAA (11140050, Gibco) and 2 U/ml heparin (25021040030, Sagent Pharmaceuticals) in a 24 well plate and rested overnight. The following day, PBMCs were co-stimulated with 100 ng of lipopolysaccharide (LPS, 00-4976-93, Invitrogen) and different doses RNSA in a volume of 0.5 ml. RNSA doses were prepared in saline (R5201-01, Braun) supplemented with 5% HPL and 2 U/ml heparin. Betamethasone (Cayman, 20363), a positive control, was resuspended in DMSO (D4540, Sigma) and administered to PBMCs at different doses to a final 0.13% DMSO concentration. Vehicle for RNSA was 50% saline and for Betamethasone 0.13% DMSO for a 1 ml reaction. All samples were tested in technical triplicates. Treatment duration was 24 hours for all groups. After 24 hours, the supernatant was collected, spun at 5,000 g for 10 minutes and the cell free supernatant stored at −80 C. To detect TNFα, hTNFα Simple Plex assay quantification was performed on ELLA ELISA based detection method (ProteinSimple).

`C[C@H]1C[C@H]2[C@@H]3CCC4=CC(=O)C=C[C@]4(C)[C@@]3(F)[C@@H](O)C[C@]2(C)[C@@]1(O)C(=O)CO` [Betamethasone] was tested, and the “attenuation of TNFα response” value was 20-68%.
